These results are taken from EP3020415A1, “Thiol compounds for use in bacterial infections” (Université de Fribourg, priority 2014, dated 2016).

The structures appear in SMILES notation. Where “and” joins values, the source holds several entries; their conditions need not be identical. Equal values may be shown once. Read-outs that look alike come from different tables or passages of the source.

Data set [1] concerns E. coli TOP10 pCR2.1-(PNDM-1-blaNDM-1-bleMBL). Description: Preliminary MIC of imipenem with DMPS, broth microdilution. The format is cell-based. As to conditions: MIC values of imipenem; 0 to 30 mM of DMPS; zinc-complemented M9CA medium; data not shown. A general note: Broth dilution looks for growth in wells or tubes with falling amounts of substance.
The conditions of data set [2]: in vivo, cited from earlier work.
For another data set, the target named is IMP-1 (Serratia marcescens, UniProt P52699). Description: biochemical.
A further data set addresses NDM-1 (Klebsiella pneumoniae, UniProt C7C422). Description: biochemical.
A further data set concerns the target VIM-1 (Pseudomonas aeruginosa, UniProt A0A0F7KYQ8). Description: biochemical.
Another data set addresses NDM-4 (Escherichia coli, UniProt H6WZS9). Description: In-vitro inhibition of purified metallo-ß-lactamase, UV spectrophotometry.
Another data set concerns the target KPC-3 (Klebsiella pneumoniae, UniProt Q9F663, H272Y). Description: In-vitro inhibition of purified enzyme, non-metallo-enzyme negative control.
The subject of another data set is A. baumannii IMP-4. Description: MIC of carbapenems with or without DMPS. The conditions noted are these: Acinetobacter baumannii, IMP4, carbapenem without DMPS, Zn 5mg/L. In kind it is cell-based. As for the experimental part:
(§1) DMPS was evaluated as inhibitor of MBLs using a panel of strains producing the most clinically significant carbapenemases of the metallo-enzyme group. Minimum inhibitory concentrations (MICs) of carbapenems were determined in-vitro with strains (reference and clinical) producing main types of class B carbapenemases which are IMP, VIM, NDM, GIM and SPM with or without DMPS at various concentrations. […] The studied strains were clinical isolates (to mirror multidrug resistance in clinical isolates) for which a precise ß-lactamase gene content is known (Table 1). The strains were NDM, VIM-, IMP, SPM and GIM and producers as well as control of a non-MBL producer (OXA-48). The selected concentration of DMPS was 1-fold, […] and 30-fold (3 mM) that of the human peak serum concentration after a single IV dose of DMPS (Aposhian,1983).
(§2) A 100 mM DMPS stock solution (Sigma Aldrich, France) (pH 5.0) was prepared in 0.2 M NaOH as recommended (Maiorino et al. 1990) and pH was neutralized to pH 7.0 with NaHCO3 Na2Ca-EDTA (Sigma Aldrich, France) dissolved in water.

In the next data set the test system is A. baumannii NDM-1. Description: MIC of carbapenems with or without DMPS. The format is cell-based. As for the experimental part: as §1, §2
A further data set relates to C. freundii VIM-2. Description: MIC of carbapenems with or without DMPS. In kind it is cell-based. As to conditions: Zn 5mg/L. The procedure:
as §1, §2

A further data set relates to E. cloacae GIM-1. Description: MIC of carbapenems with or without DMPS. In kind it is cell-based. The conditions noted are these: Zn 5mg/L. The procedure: as §1, §2
The subject of a further data set is E. coli NDM-1. Description: MIC of carbapenems with or without DMPS. The format is cell-based. As to conditions: Zn 5mg/L. As for the experimental part: as §1, §2
The next data set concerns E. coli NDM-4. Description: MIC of carbapenems with or without DMPS. The format is cell-based. The conditions noted are these: Zn 5mg/L. The procedure:
as §1, §2

A further data set deals with E. coli NDM-5. Description: MIC of carbapenems with or without DMPS. In kind it is cell-based. As to conditions: Zn 5mg/L. As for the experimental part: as §1, §2
The subject of a further data set is K. pneumoniae IMP-4. Description: MIC of carbapenems with or without DMPS. In kind it is cell-based. The conditions noted are these: Zn 5mg/L. The procedure: as §1, §2
The test system of another data set is K. pneumoniae IMP-8. Description: MIC of carbapenems with or without DMPS. In kind it is cell-based. The conditions noted are these: Zn 5mg/L. As for the experimental part: as §1, §2
In another data set the test system is K. pneumoniae NDM-1. Description: MIC of carbapenems with or without DMPS. The format is cell-based. As to conditions: Zn 5mg/L. As for the experimental part:
as §1, §2

A further data set concerns K. pneumoniae VIM-4. Description: MIC of carbapenems with or without DMPS. The format is cell-based. As to conditions: Zn 5mg/L. The procedure: as §1, §2
A further data set relates to P. aeruginosa GIM-1. Description: MIC of carbapenems with or without DMPS. The conditions noted are these: Zn 5mg/L. The format is cell-based. The procedure:
as §1, §2

For a further data set, the system named is P. aeruginosa IMP-13. Description: MIC of carbapenems with or without DMPS. In kind it is cell-based. As for the experimental part: as §1, §2
A further data set relates to P. aeruginosa NDM1. Description: MIC of carbapenems with or without DMPS. The format is cell-based. The conditions noted are these: carbapenem without DMPS, Zn 5mg/L. As for the experimental part: as §1, §2
The next data set relates to P. aeruginosa SPM1. Description: MIC of carbapenems with or without DMPS. In kind it is cell-based. The conditions noted are these: Pseudomonas aeruginosa, carbapenem without DMPS, Zn 5mg/L. As for the experimental part:
as §1, §2

A further data set concerns P. aeruginosa VIM-1. Description: MIC of carbapenems with or without DMPS. The format is cell-based. As for the experimental part:
as §1, §2

The next data set has as its system P. aeruginosa VIM-2. Description: MIC of carbapenems with or without DMPS. As to conditions: Zn 5mg/L. The format is cell-based. The procedure: as §1, §2
For the next data set, the system named is P. putida VIM-2. Description: MIC of carbapenems with or without DMPS. In kind it is cell-based. As to conditions: Pseudomonas putida, VIM2. As for the experimental part:
as §1, §2

The next data set has as its system K. pneumoniae OXA-48. Description: MIC of carbapenems with or without DMPS (non-MBL control). In kind it is cell-based. As to conditions: K. pneumoniae OXA-48 (control), carbapenem without DMPS, Zn 5mg/L. As for the experimental part:
as §1, §2

For `O=S(=O)([O-])CC(S)CS.[Na+]` (racemic) [DMPS], the “maximal inhibition efficiency (DMPS concentration)” value in data set [1] worked out at 50 mM. For the same molecule, in data set [2] (iv), the serum concentration entry is “ca. 110 µM”. Moreover, in data set [2], the elimination result is “mostly eliminated by urines”. For the same molecule, the IC50 against IMP-1 was 70 µM; against NDM-1, 80 µM; at VIM-1, 180 µM; at NDM-4, 110 µM; on KPC-3, more than 10000 µM.

In the case of `C[C@@H](O)[C@H]1C(=O)N2C(C(=O)O)=C(SCCN=CN)C[C@H]12` [IPM, imipenem], the MIC in the data set on A. baumannii IMP-4 came to 64 µg/mL; in the data set on A. baumannii NDM-1 (Acinetobacter baumannii, NDM1), 128 µg/mL; in the data set with C. freundii VIM-2 (Citrobacter freundii, VIM2, carbapenem without DMPS, read-out: MIC), 2 µg/mL; in the data set on E. cloacae GIM-1 (Enterobacter cloacae, GIM1, carbapenem without DMPS, read-out: MIC) it was 8 µg/mL; with E. coli NDM-1 (Escherichia coli, NDM1, carbapenem without DMPS, read-out: MIC), 8 µg/mL; in the data set on E. coli NDM-4 (Escherichia coli, NDM4, carbapenem without DMPS, read-out: MIC), 64 µg/mL. In addition, the MIC in the data set with E. coli NDM-5 (Escherichia coli, NDM5, carbapenem without DMPS, read-out: MIC) is 64 µg/mL; with K. pneumoniae IMP-4 (Klebsiella pneumoniae, IMP4, carbapenem without DMPS, read-out: MIC) it was 16 µg/mL; in the data set on K. pneumoniae IMP-8 (Klebsiella pneumoniae, IMP8, carbapenem without DMPS, read-out: MIC), 8 µg/mL; with K. pneumoniae NDM-1 (Klebsiella pneumoniae, NDM1, carbapenem without DMPS, read-out: MIC) it was 64 µg/mL; with K. pneumoniae VIM-4 (Klebsiella pneumoniae, VIM4, carbapenem without DMPS, read-out: MIC), 64 µg/mL; in the data set on P. aeruginosa GIM-1 (Pseudomonas aeruginosa, GIM1, carbapenem without DMPS, read-out: MIC), more than 1020 µg/mL. The MIC in the data set with P. aeruginosa IMP-13 (Pseudomonas aeruginosa, IMP13) is 128 µg/mL; in the data set on P. aeruginosa NDM1 (Pseudomonas aeruginosa, read-out: MIC), 1020 µg/mL; in the data set on P. aeruginosa SPM1, 1020 µg/mL; in the data set on P. aeruginosa VIM-1 (Pseudomonas aeruginosa, VIM1) it was 128 µg/mL; in the data set on P. aeruginosa VIM-2 (Pseudomonas aeruginosa, VIM2, carbapenem without DMPS, read-out: MIC), 1020 µg/mL; in the data set on P. putida VIM-2 it was 128 µg/mL. Further, in the data set with K. pneumoniae OXA-48 (Klebsiella pneumoniae, OXA48, read-out: MIC), the MIC is 32 µg/mL.

With `C[C@@H](O)[C@H]1C(=O)N2C(C(=O)O)=C(S[C@@H]3CN[C@H](C(=O)N(C)C)C3)[C@H](C)[C@H]12` [MEM, meropenem], the MIC with A. baumannii NDM-1 (A. baumannii NDM-1, carbapenem without DMPS, Zn 5mg/L) was 256 µg/mL; in the data set on C. freundii VIM-2 (carbapenem without DMPS) it was 0.06 µg/mL; with E. cloacae GIM-1 (carbapenem without DMPS), 16 µg/mL; in the data set on E. coli NDM-1 (carbapenem without DMPS), 32 µg/mL and 16 µg/mL; with E. coli NDM-4 (carbapenem without DMPS), 64 µg/mL; in the data set on E. coli NDM-5 (carbapenem without DMPS), 64 µg/mL. For the same molecule, the MIC with K. pneumoniae IMP-4 (carbapenem without DMPS) is 16 µg/mL; in the data set with K. pneumoniae IMP-8 (carbapenem without DMPS), 2 µg/mL; in the data set on K. pneumoniae NDM-1 (carbapenem without DMPS), 64 µg/mL; with K. pneumoniae VIM-4 (carbapenem without DMPS) it was 32 µg/mL; with P. aeruginosa GIM-1 (carbapenem without DMPS) it was 1,024 µg/ml; in the data set with P. aeruginosa IMP-13 (P. aeruginosa IMP-13, carbapenem without DMPS, Zn 5mg/L) it was 64 µg/mL. Besides, the MIC in the data set on P. aeruginosa NDM1 is 256 µg/mL; with P. aeruginosa VIM-1 (P. aeruginosa VIM-1, carbapenem without DMPS, Zn 5mg/L), 256 µg/mL; in the data set with P. aeruginosa VIM-2 (carbapenem without DMPS) it was 1,024 µg/ml; with K. pneumoniae OXA-48 it was 32 µg/mL.

By IC50 is commonly meant the concentration that inhibits the measured activity by half. The term MIC denotes the lowest concentration that inhibits growth of the organism.
